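Exposure lasted 48 hours, with cells grown in 96-well plates and compounds tested at five concentrations. TGI: total growth inhibition.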
How the values were obtained:
Assay in all cases: NCI tumour cell line growth inhibition, 48 h
[1] = test system: OVCAR-5 ovarian
[2] = test system: SF-539 CNS
[3] = test system: HOP-62 NSCLC
[4] = test system: SF-295 CNS
[5] = test system: TK-10 renal
[6] = test system: MALME-3M melanoma
[7] = test system: HT29 colon
[8] = test system: MDA-MB-231 breast
[9] = test system: KM12 colon
[10] = test system: M14 melanoma
[11] = test system: ACHN renal
[12] = test system: SR leukemia
[13] = test system: SK-OV-3 ovarian
[14] = test system: MCF7 breast
[15] = test system: RXF 393 renal
[16] = test system: OVCAR-8 ovarian
[17] = test system: 786-0 renal
[18] = test system: U251 CNS
[19] = test system: MDA-MB-435
[20] = test system: HL-60(TB) leukemia
[21] = test system: SF-268 CNS
[22] = test system: NCI/ADR-RES ovarian
[23] = test system: UACC-257 melanoma
[24] = test system: NCI-H460 lung
[25] = test system: SNB-19 CNS
[26] = test system: CAKI-1 renal
[27] = test system: DU-145 prostate
[28] = test system: CCRF-CEM leukemia
[29] = test system: NCI-H23 lung
[30] = test system: K-562 leukemia
[31] = test system: PC-3 prostate
[32] = test system: HCC-2998 colon
[33] = test system: HOP-92 NSCLC
[34] = test system: COLO 205 colon
[35] = test system: T-47D breast
[36] = test system: UACC-62 melanoma
[37] = test system: OVCAR-3 ovarian
[38] = test system: SN12C renal
[39] = test system: NCI-H226 lung
[40] = test system: A549 NSCLC
[41] = test system: HS 578T breast
[42] = test system: UO-31 renal
[43] = test system: MOLT-4 leukemia
[44] = test system: IGROV1 ovarian
[45] = test system: A498 renal
[46] = test system: BT-549 breast
[47] = test system: OVCAR-4 ovarian
[48] = test system: RPMI-8226 leukemia
[49] = test system: MDA-N
[50] = test system: HCT-15 colon
[51] = test system: EKVX NSCLC
[52] = test system: SK-MEL-5 melanoma
[53] = test system: SK-MEL-28 melanoma
[54] = test system: SNB-75 CNS
[55] = test system: NCI-H522 lung
[56] = test system: SK-MEL-2 melanoma
[57] = test system: HCT-116 colon
[58] = test system: LOX IMVI melanoma
[59] = test system: SW-620 colon

Compound: COC(=O)c1c(OC(C)=O)ccc2c1c1c(OC(C)=O)c3ccccc3c(OC(C)=O)c1n2Cc1cc(OC)cc(OC)c1
- TGI [1]: > 100 µM
- TGI [2]: 9.27 µM
- TGI [3]: > 100 µM
- TGI [4]: > 100 µM
- TGI [5]: > 100 µM
- TGI [6]: 70.6 µM
- TGI [7]: > 100 µM
- TGI [8]: > 100 µM
- TGI [9]: 8.13 µM
- TGI [10]: > 100 µM
- TGI [11]: > 100 µM
- TGI [12]: > 100 µM
- TGI [13]: 57.8 µM
- TGI [14]: > 100 µM
- TGI [15]: > 100 µM
- TGI [16]: > 100 µM
- TGI [17]: > 100 µM
- TGI [18]: > 100 µM
- TGI [19]: 78.3 µM
- TGI [20]: > 100 µM
- TGI [21]: > 100 µM
- TGI [22]: > 100 µM
- TGI [23]: > 100 µM
- TGI [24]: > 100 µM
- TGI [25]: > 100 µM
- TGI [26]: > 100 µM
- TGI [27]: > 100 µM
- TGI [28]: > 100 µM
- TGI [29]: > 100 µM
- TGI [30]: > 100 µM
- TGI [31]: > 100 µM
- TGI [32]: 10.9 µM
- TGI [33]: 5.35 µM
- TGI [34]: > 100 µM
- TGI [35]: 48.9 µM
- TGI [36]: > 100 µM
- TGI [37]: > 100 µM
- TGI [38]: > 100 µM
- TGI [39]: > 100 µM
- TGI [40]: > 100 µM
- TGI [41]: > 100 µM
- TGI [42]: > 100 µM
- TGI [43]: > 100 µM
- TGI [44]: > 100 µM
- TGI [45]: 89.8 µM
- TGI [46]: 82.1 µM
- TGI [47]: > 100 µM
- TGI [48]: 20.8 µM
- TGI [49]: 81.4 µM
- TGI [50]: > 100 µM
- TGI [51]: 26.7 µM
- TGI [52]: 24.3 µM
- TGI [53]: > 100 µM
- TGI [54]: 54.3 µM
- TGI [55]: 9.2 µM
- TGI [56]: 12.5 µM
- TGI [57]: 78.3 µM

Compound: CCCCC1(N=[N+]=[N-])C(=O)c2cccc3c2N(CCC3)C1=O (configuration not stated)
- TGI [1]: > 100 µM
- TGI [2]: > 100 µM
- TGI [3]: > 100 µM
- TGI [4]: > 100 µM
- TGI [5]: > 100 µM
- TGI [6]: > 100 µM
- TGI [7]: > 100 µM
- TGI [8]: > 100 µM
- TGI [9]: > 100 µM
- TGI [10]: > 100 µM
- TGI [11]: > 100 µM
- TGI [12]: > 100 µM
- TGI [13]: > 100 µM
- TGI [14]: > 100 µM
- TGI [15]: > 100 µM
- TGI [16]: > 100 µM
- TGI [17]: > 100 µM
- TGI [18]: > 100 µM
- TGI [19]: > 100 µM
- TGI [58]: > 100 µM
- TGI [21]: > 100 µM
- TGI [22]: > 100 µM
- TGI [23]: > 100 µM
- TGI [24]: > 100 µM
- TGI [25]: > 100 µM
- TGI [26]: > 100 µM
- TGI [27]: > 100 µM
- TGI [28]: > 100 µM
- TGI [29]: > 100 µM
- TGI [30]: > 100 µM
- TGI [31]: > 100 µM
- TGI [59]: > 100 µM
- TGI [32]: > 100 µM
- TGI [33]: > 100 µM
- TGI [34]: > 100 µM
- TGI [35]: > 100 µM
- TGI [36]: > 100 µM
- TGI [37]: > 100 µM
- TGI [38]: > 100 µM
- TGI [39]: > 100 µM
- TGI [40]: > 100 µM
- TGI [41]: > 100 µM
- TGI [43]: > 100 µM
- TGI [44]: > 100 µM
- TGI [45]: > 100 µM
- TGI [46]: > 100 µM
- TGI [47]: > 100 µM
- TGI [48]: > 100 µM
- TGI [49]: > 100 µM
- TGI [50]: > 100 µM
- TGI [51]: > 100 µM
- TGI [52]: > 100 µM
- TGI [53]: > 100 µM
- TGI [54]: > 100 µM
- TGI [55]: > 100 µM
- TGI [56]: > 100 µM
- TGI [57]: > 100 µM

Compound: COCn1c2ccc(OC(C)=O)cc2c2c(=O)oc(C)nc21
- TGI [1]: > 100 µM
- TGI [2]: > 100 µM
- TGI [3]: > 100 µM
- TGI [4]: > 100 µM
- TGI [5]: > 100 µM
- TGI [6]: > 100 µM
- TGI [7]: > 100 µM
- TGI [8]: > 100 µM
- TGI [9]: > 100 µM
- TGI [10]: > 100 µM
- TGI [11]: > 100 µM
- TGI [12]: > 100 µM
- TGI [13]: > 100 µM
- TGI [14]: > 100 µM
- TGI [15]: > 100 µM
- TGI [16]: > 100 µM
- TGI [17]: > 100 µM
- TGI [18]: > 100 µM
- TGI [19]: > 100 µM
- TGI [20]: > 100 µM
- TGI [58]: > 100 µM
- TGI [21]: > 100 µM
- TGI [22]: > 100 µM
- TGI [23]: > 100 µM
- TGI [24]: > 100 µM
- TGI [25]: > 100 µM
- TGI [26]: > 100 µM
- TGI [27]: > 100 µM
- TGI [28]: > 100 µM
- TGI [29]: > 100 µM
- TGI [30]: > 100 µM
- TGI [31]: > 100 µM
- TGI [59]: > 100 µM
- TGI [32]: > 100 µM
- TGI [33]: > 100 µM
- TGI [34]: > 100 µM
- TGI [35]: > 100 µM
- TGI [36]: > 100 µM
- TGI [38]: > 100 µM
- TGI [39]: > 100 µM
- TGI [40]: > 100 µM
- TGI [41]: > 100 µM
- TGI [42]: > 100 µM
- TGI [43]: > 100 µM
- TGI [44]: > 100 µM
- TGI [45]: > 100 µM
- TGI [46]: > 100 µM
- TGI [47]: > 100 µM
- TGI [48]: > 100 µM
- TGI [49]: > 100 µM
- TGI [50]: > 100 µM
- TGI [51]: > 100 µM
- TGI [52]: > 100 µM
- TGI [53]: > 100 µM
- TGI [54]: > 100 µM
- TGI [55]: > 100 µM
- TGI [56]: > 100 µM
- TGI [57]: > 100 µM
